pIC50: −log10 of the molar value. Read-outs that look alike come from different tables or passages of the source. One block for each compound: values may come before it.
How the values were obtained:
[1] = tested on: NF-κB; assay: In cellulo competition: over-expression of TNF/NF-κB pathway cDNAs in HEK293 NF-κB reporter cells; conditions: for Effect of over-expressed IKK-beta or NF-κB p65 on the compound's inhibition of the NF-κB reporter: transient over-expression, 1, 2 or 5 mM
Method: (§2) HEK293T NF-κB reporter cells were seeded at 7000 cells/well in 384-well plates in triplicate. Eighteen hours later, cells were treated with TNF-alpha (10 ng/mL) in the absence of or presence of 1, 2 or 5 mM sodium salicylate. Cells in other wells were transfected with mammalian expression vectors encoding wild-type human IKK-beta (50 ng) or NF-κB p65 (10 ng) by calcium phosphate. Eight hours post transfection, fresh medium was added with 1, 2 or 5 mM sodium salicylate and incubated for an additional 16 hours. At 24 hours post TNF addition or post transfection, cells were lysed and incubated with Bright-Glo (Promega) and Relative Light Units (RLUs) were determined using the LJL Acquest luminometer.
Screening and Small Complementation: HEK293 NF-κB reporter cells were plated at 7000 cells/well in 384-well Greiner clear bottom plates using a Titertek Multidrop. Cells were incubated for 8 hours before transfection of the cDNA libraries. […] Thirty minutes compound treatment, The Hydra was used again to mix two μL DNA with 8 ul of a premixed solution 61 μl 2m CaC12, 440 μH20 distributed into a 384-well intermediate plate. Then, 10 ul of a 2× Hepes Buffered Saline solution (HBS, pH 7.0) was mixed with the DNA and pipetted automatically for 5 seconds followed by 10 μL addition of the transfection solution to HEK293 NF-κB reporter cells. After transfected plates of cells were incubated at 37° C. for 16 hours, Bright-Glo was added to each well using a twelve-head multi-channel pipettor, incubated for five minutes then read on the LJL Acquest in luminescence mode. Controls used in this experiment were limited to p65, IKK-beta, NIK and IKK-alpha. Additionally, retroviral vectors encoding firefly luciferase alone were plated in 384-wells and transfected into wild-type HEK293 cells to determine transfection efficiency and CVs.
(§3) HEK293 NF-κB reporter cells were plated in 96-well plates at 28,000 cells/well in D'MEM media containing 10% FBS, pen-strep antibiotics and 1 mM glutamine. […] After 24 hours, samples were treated with Bright-Glo and analyzed using the LJL Acquest luminometer.

[2] = tested on: NF-κB; assay: HEK293 NF-κB-luciferase reporter gene assay, TNF-alpha stimulation
Method: Day 7: HEK293 and Jurkat NF-κB reporter cells were plated and treated with a dose-response of human TNF-alpha for 2 to 24 hours, lysed and treated with Bright-Glo luciferase reagent (Promega) and luminescence measured with the LJL Acquest luminometer.
as §2
Stimulus and detection addition: After 30 minute incubation with compounds, a solution of TNF-alpha (Sigma) diluted to 60 ng/ml and transferred to cells using the Cartesian synQUAD such that 1 μL of stimulus was added per well to a final dilution of approximately 10 ng/ml final. […] Cells were incubated with the Alamar Blue for three hours then read on the LJL Acquest in fluorescence mode at 100,000 us/well. […] Precisely five minutes after addition of Bright-Glo, the cell plate was read in luminescence mode in the LJL Acquest at 100,000 us per well. Wells treated with compounds in which fluorescent signals were >90% of the mean across the plate, and below 50% of the mean across the plate for luminescence were identified and compounds hit picked for future studies. […] IC50 values were also determined in the HEK293 NF-κB reporter gene assay in the same manner.
as §3

[3] = tested on: NF-κB; conditions: Jurkat reporter cells, stable retroviral over-expression, 1, 2 or 5 mM
Method: (§1) Alternatively, Jurkat NF-κB reporter cells were seeded at 30,000 cells per/ml in 384-well microtiter plates. Recombinant retroviruses encoding wild-type IKK-beta or NF-κB p65 were generated and used to transduce Jurkat reporter cells. Untransduced cells were treated with 1, 2 or 5 mM salicylate for 30 minutes prior to stimulation with TNF-alpha (10 ng/ml). For transduced cells, 4 hours post retroviral incubation, cells were treated with either 0, 1, 2 or 5 mM salicylic acid.

[4] = tested on: NF-κB; assay: Jurkat NF-κB-luciferase reporter cell assay, TNF-alpha stimulation; type: cell-based; conditions: Jurkat reporter cells
Method: as §1, with “ng/ml).” for “ng/ml). For transduced cells, 4 hours post retroviral incubation, cells were treated with either 0, 1, 2 or 5 mM salicylic acid.”
Cell Plating: Jurkat NF-κB reporter cells were seeded at 5 μL per well in Greiner 1536-well micro-plates using the Cartesian synQUAD. Settings for the 24,000 step motor were such that a 100 μL syringe would provide a volume per step of 4.2 nL; timing was controlled by a master dispenser solenoids and stepper motors which moved the stage and controlled the syringe pumps. The result was extremely rapid “on-the-fly” dispensing, similar to an inkjet printer. […]
Compound addition: Four Falcon 384-well plates containing compounds (Aldrich) dissolved in dimethylsulfoxide (DMSO) to a final concentration of 1 mM (excepting the last two columns which were just DMSO) were transferred to the Jurkat reporter cells. […] Coefficients of variation (CVs) before and after compound addition was determined by transferring liquid from a FITC solution bath to 384 well plates and read on the LJL Acquest in fluorescence modality.

Compound: CC(=O)c1c(O)c(C)c(O)c(Cc2c(O)c3c(c(C(=O)/C=C/c4ccccc4)c2O)OC(C)(C)C=C3)c1O [Rottlerin]
Block of NF-κB reporter signals induced by TNF or over-expressed TNFR, TRAF2, NIK, IKK-beta, IKK-alpha, p65 ([1]; compound at its IC50 concentration, 24 hours): able to block signals induced by TNF, TNFR, but not TRAF2 | pIC50 ([2]; Homo sapiens, HEK293, read-out: IC50 concentration, NF-κB reporter gene assay): 7.30

Block of TNF induction of NF-κB reporter ([2]; HEK293 reporter cells, TNF-alpha 10 ng/mL, 1, 2 or 5 mM sodium salicylate): block TNF induction of NF-κB
Compound: O=C(O)c1ccccc1O [Salicylate, salicylic acid]
Effect of over-expressed IKK-beta or NF-κB p65 on the compound's inhibition of the NF-κB reporter [1]: over-expression of cDNA encoding human IKK-beta diminished the inhibitory effects | Effect of over-expressed IKK-beta or NF-κB p65 on the compound's inhibition of the NF-κB reporter ([1]; listed as salicyclic acid): over-expression of IKK-beta, but not NF-κB p65, could titrate out the effect | Effect of over-expressed IKK-beta or NF-κB p65 on the compound's inhibition of the NF-κB reporter [3]: over-expression of cDNA encoding human IKK-beta diminished the inhibitory effects | Effect of over-expressed IKK-beta or NF-κB p65 on the compound's inhibition of the NF-κB reporter ([3]; listed as salicyclic acid): over-expression of IKK-beta, but not NF-κB p65, could titrate out the effect | Block of TNF induction of NF-κB reporter ([4]; TNF-alpha 10 ng/ml, 1, 2 or 5 mM salicylate): block TNF induction of NF-κB

Induction of NF-κB reporter luciferase ([2]; HEK293 reporter cells, dose-response, 2 to 24 hours): inducible
Compound: TNF-alpha
Induction of NF-κB reporter luciferase ([4]; dose-response, 2 to 24 hours): inducible

— patent publication US20030170642A1, “Identification of cellular targets for biologically active molecules” (IRM, LLC, priority 2001, published 2003)
